Measured values from article PMC4440778, “Structure-Activity Relationship and Mode of Action of a Frog Secreted Antibacterial Peptide B1CTcu5 Using Synthetically and Modularly Modified or Deleted (SMMD) Peptides” (PLoS ONE, 2015).
In brackets after ≈: the same amount, converted by molar mass. Where a SMILES comes first, the peptide text is derived from it. Bridges are numbered along the chain shown (N, C = ends). Where no end group is shown, it is not given here. [ ]: non-standard residue; d: D form. The star is where a group is joined. Acm = CC(=O)NC*

Experiments:
B. coagulans ATCC 7050 = details: ATCC 7050, 24 h
Protocol: (§2) Bacterial cultures were grown in Luria Bertani broth (Hi-media) by overnight incubation at 37°C with constant shaking. Microbial cultures having 10^6 CFU/ml were made from OD 0.6 culture. Respective peptide stock concentration (1mg/ml) were prepared in sterile water and diluted in LB broth to make concentrations ranging from 1–200 μg/ml. Bacterial culture (50 μl) was treated with 50 μl of individual peptide amide solution of various concentrations and incubated for 24 h at 37°C with constant shaking in a 96 well microtitre plate. […] The minimum inhibitory concentration (MIC) was taken as the dose at which 100% of growth inhibition was observed and was calculated from the graph. MIC was calculated from independent experiments performed in triplicate.

skin cancer cells (A431) = assay type: cell-based, human
Protocol: (§1) Cytotoxicity of the peptides against human embryonic kidney (HEK) cells, skin cancer cells (A431) and PBMCs were evaluated by 3-[4, 5-dimethylthiazol-2-yl]-2, 5-diphenyl tetrazolium bromide (MTT) assay. Peptide solution prepared in less than 0.2% DMSO (10–100 μg/ml) was treated with initially seeded 10,000 cells per well for HEK and A431 cells. To assess peptide cytotoxicity in PBMCs, MTT assay was performed by adding different concentrations of the respective peptides to 96 well plate containing 40,000 PBMCs per well, in triplicate. The conversion of MTT into […] was determined by measuring the absorbance at 570 nm.

B. subtilis MTCC 14416 = details: MTCC 14416, 24 h
Protocol: as §2

PBMCs = assay type: cell-based, human
Protocol: Peripheral blood mononuclear cells (PBMCs) were isolated from heparanised blood of healthy individuals. Five milliliter of blood was diluted with PBS (pH 7.4), and layered above 5 ml of histopaque and centrifuged at 1200 rpm for 30 min at room temperature. The upper layer was discarded, and the interphase containing PBMCs were carefully withdrawn and washed with PBS. It was centrifuged at 1500 rpm at room temperature for 10 min, the pellets were resuspended in RPMI medium and the cells were counted.
as §1

S. aureus ATCC 9542 = details: ATCC 9542, 24 h
Protocol: as §2

P. aeruginosa ATCC 27853 = details: ATCC 27853, 24 h
Protocol: as §2

[1] = tested on: V. cholerae (clinical isolates); details: 24 h
Protocol: as §2

[2] = tested on: human embryonic kidney (HEK) cells; assay type: cell-based
Protocol: as §1

E. coli MG 1655 = details: MG 1655, 24 h
Protocol: as §2

Row | Compound | MIC (B. coagulans ATCC 7050) [µg/mL] | CC 50 (skin cancer cells (A431)) [µg/mL] | MIC (B. subtilis MTCC 14416) [µg/mL] | CC 50 (PBMCs) [µg/mL] | MIC (S. aureus ATCC 9542) [µg/mL] | MIC (P. aeruginosa ATCC 27853) [µg/mL] | MIC [1] [µg/mL] | CC 50 [2] [µg/mL] | MIC (E. coli MG 1655) [µg/mL]
1 | CC[C@H](C)[C@@H]1NC(=O)[C@H](CCCCN)NC(=O)[C@@H](NC(=O)[C@H](CC(C)C)NC(=O)[C@@H](NC(=O)[C@H](CCC(N)=O)NC(=O)[C@@H]2CCCN2C(=O)[C@H](CC(C)C)NC(=O)[C@H](Cc2ccccc2)NC(=O)[C@H](CC(N)=O)NC(=O)[C@H](C)NC(=O)[C@H](C)NC(=O)[C@@H](N)CC(C)C)[C@@H](C)CC)CSSC[C@@H](C(N)=O)NC(=O)[C@H](CCCCN)NC(=O)[C@H](CCCNC(=N)N)NC(=O)[C@H](C)NC1=O [B1CTcu5-LIAG] (H-LAANFLPQILCKIARKC-NH2; disulfide 11-17) | 25 (≈ 13.2 µM) | >100 | 50 (≈ 26.3 µM) | >100 | 6.25 (≈ 3.29 µM) | >100 | 12.5 (≈ 6.58 µM) | >100 | 12.5 (≈ 6.58 µM)
2 | CC[C@H](C)[C@@H]1NC(=O)[C@H](CCCCN)NC(=O)[C@@H](NC(=O)[C@H](CC(C)C)NC(=O)[C@@H](NC(=O)[C@H](CCC(N)=O)NC(=O)[C@@H]2CCCN2C(=O)[C@H](CC(C)C)NC(=O)[C@H](Cc2ccccc2)NC(=O)[C@H](CC(N)=O)NC(=O)[C@H](C)NC(=O)[C@H](C)NC(=O)[C@H](CC(C)C)NC(=O)CN)[C@@H](C)CC)CSSC[C@@H](C(N)=O)NC(=O)[C@H](CCCCN)NC(=O)[C@H](CCCNC(=N)N)NC(=O)[C@H](C)NC1=O [B1CTcu5-LIA] (H-GLAANFLPQILCKIARKC-NH2; disulfide 12-18) | 100 (≈ 51.1 µM) |  | 100 (≈ 51.1 µM) |  | 50 (≈ 25.6 µM) | >100 | 50 (≈ 25.6 µM) |  | 100 (≈ 51.1 µM)
3 | CC[C@H](C)[C@@H]1NC(=O)[C@H](CCCCN)NC(=O)[C@@H](NC(=O)[C@H](CC(C)C)NC(=O)[C@@H](NC(=O)[C@H](CCC(N)=O)NC(=O)[C@@H]2CCCN2C(=O)[C@H](CC(C)C)NC(=O)[C@H](Cc2ccccc2)NC(=O)[C@H](CC(N)=O)NC(=O)[C@H](C)NC(=O)[C@H](C)NC(=O)[C@H](CC(C)C)NC(=O)CNC(=O)[C@H](C)N)[C@@H](C)CC)CSSC[C@@H](C(N)=O)NC(=O)[C@H](CCCCN)NC(=O)[C@H](CCCNC(=N)N)NC(=O)[C@H](C)NC1=O [B1CTcu5-LI] (H-AGLAANFLPQILCKIARKC-NH2; disulfide 13-19) | 80 (≈ 39.5 µM) |  |  |  | 50 (≈ 24.7 µM) | >100 | 25 (≈ 12.3 µM) |  | 50 (≈ 24.7 µM)
4 | CC[C@H](C)[C@H](N)C(=O)N[C@@H](C)C(=O)NCC(=O)N[C@@H](CC(C)C)C(=O)N[C@@H](C)C(=O)N[C@@H](C)C(=O)N[C@@H](CC(N)=O)C(=O)N[C@@H](Cc1ccccc1)C(=O)N[C@@H](CC(C)C)C(=O)N1CCC[C@H]1C(=O)N[C@@H](CCC(N)=O)C(=O)N[C@H](C(=O)N[C@@H](CC(C)C)C(=O)N[C@H]1CSSC[C@@H](C(N)=O)NC(=O)[C@H](CCCCN)NC(=O)[C@H](CCCNC(=N)N)NC(=O)[C@H](C)NC(=O)[C@H]([C@@H](C)CC)NC(=O)[C@H](CCCCN)NC1=O)[C@@H](C)CC [B1CTcu5-L] (H-IAGLAANFLPQILCKIARKC-NH2; disulfide 14-20) | 100 (≈ 46.7 µM) |  | 100 (≈ 46.7 µM) |  | 25 (≈ 11.7 µM) | >100 | 25 (≈ 11.7 µM) |  | 50 (≈ 23.4 µM)
5 | CC[C@H](C)[C@H](NC(=O)[C@H](CCCCN)NC(=O)[C@H](CSCNC(C)=O)NC(=O)[C@H](CC(C)C)NC(=O)[C@@H](NC(=O)[C@H](CCC(N)=O)NC(=O)[C@@H]1CCCN1C(=O)[C@H](CC(C)C)NC(=O)[C@H](Cc1ccccc1)NC(=O)[C@H](CC(N)=O)NC(=O)[C@H](C)NC(=O)[C@H](C)NC(=O)[C@H](CC(C)C)NC(=O)CNC(=O)[C@H](C)NC(=O)[C@@H](NC(=O)[C@@H](N)CC(C)C)[C@@H](C)CC)[C@@H](C)CC)C(=O)N[C@@H](C)C(=O)N[C@@H](CCCNC(=N)N)C(=O)N[C@@H](CCCCN)C(=O)N[C@@H](CS)C(N)=O [B1CTcu5C (Acm)] (H-LIAGLAANFLPQILC(Acm)KIARKC-NH2) | 25 (≈ 10.7 µM) |  | 50 (≈ 21.5 µM) |  | 50 (≈ 21.5 µM) | >100 | 50 (≈ 21.5 µM) |  | 12.5 (≈ 5.37 µM)
6 | CC[C@H](C)[C@@H]1NC(=O)[C@H](CCCCN)NC(=O)[C@@H](NC(=O)[C@H](CC(C)C)NC(=O)[C@@H](NC(=O)[C@H](CCC(N)=O)NC(=O)[C@@H]2CCCN2C(=O)[C@H](CC(C)C)NC(=O)[C@H](Cc2ccccc2)NC(=O)[C@H](CC(N)=O)NC(=O)[C@H](C)NC(=O)[C@H](C)NC(=O)[C@H](CC(C)C)NC(=O)CNC(=O)[C@H](C)NC(=O)[C@@H](NC(=O)[C@@H](N)Cc2c[nH]cn2)[C@@H](C)CC)[C@@H](C)CC)CSSC[C@@H](C(N)=O)NC(=O)[C@H](CCCCN)NC(=O)[C@H](CCCNC(=N)N)NC(=O)[C@H](C)NC1=O [B1CTcu5H] (H-HIAGLAANFLPQILCKIARKC-NH2; disulfide 15-21) | 25 (≈ 11 µM) | >100 | 50 (≈ 22 µM) | 90 ± 2.56 (≈ 39.5 µM) | >100 | >100 | 25 (≈ 11 µM) | >100 | 50 (≈ 22 µM)
7 | CC[C@@H](C)[C@@H](NC(=O)[C@H](N)CC(C)C)C(=O)N[C@H](C)C(=O)NCC(=O)N[C@H](CC(C)C)C(=O)N[C@H](C)C(=O)N[C@H](C)C(=O)N[C@H](CC(N)=O)C(=O)N[C@H](Cc1ccccc1)C(=O)N[C@H](CC(C)C)C(=O)N1CCC[C@@H]1C(=O)N[C@H](CCC(N)=O)C(=O)N[C@@H](C(=O)N[C@H](CC(C)C)C(=O)N[C@@H]1CSSC[C@H](C(N)=O)NC(=O)[C@@H](CCCCN)NC(=O)[C@@H](CCCNC(=N)N)NC(=O)[C@@H](C)NC(=O)[C@@H]([C@H](C)CC)NC(=O)[C@@H](CCCCN)NC1=O)[C@H](C)CC [DB1CTcu5] (H-[dL][dI][dA]G[dL][dA][dA][dN][dF][dL][dP][dQ][dI][dL][dC][dK][dI][dA][dR][dK][dC]-NH2; disulfide 15-21) | 15 (≈ 6.66 µM) | >100 | 50 (≈ 22.2 µM) | 71.4 ± 2.3 (≈ 31.7 µM) | 50 (≈ 22.2 µM) | >100 |  | >100 | 25 (≈ 11.1 µM)
8 | CC[C@H](C)[C@H](NC(=O)[C@H](CCCCN)NC(=O)[C@H](CS)NC(=O)[C@H](CC(C)C)NC(=O)[C@@H](NC(=O)[C@H](CCC(N)=O)NC(=O)[C@@H]1CCCN1C(=O)[C@H](CC(C)C)NC(=O)[C@H](Cc1ccccc1)NC(=O)[C@H](CC(N)=O)NC(=O)[C@H](C)NC(=O)[C@H](C)NC(=O)[C@H](CC(C)C)NC(=O)CNC(=O)[C@H](C)NC(=O)[C@@H](NC(=O)[C@@H](N)CC(C)C)[C@@H](C)CC)[C@@H](C)CC)C(=O)N[C@@H](C)C(=O)N[C@@H](CCCNC(=N)N)C(=O)N[C@@H](CCCCN)C(=O)N[C@@H](CS)C(N)=O [Linear B1CTcu5] (H-LIAGLAANFLPQILCKIARKC-NH2) | 12.5 (≈ 5.54 µM) |  | 50 (≈ 22.2 µM) |  | >100 | >100 | 25 (≈ 11.1 µM) |  | 25 (≈ 11.1 µM)
9 | LIAGLAANFLPQILCKIARK-NH2 [B1CTcu5-C] | 25 |  | 50 |  | 50 | >100 | 50 |  | 25
